Molecules are shown by their SMILES.

T1 sequence (P01009 25-418 E366K): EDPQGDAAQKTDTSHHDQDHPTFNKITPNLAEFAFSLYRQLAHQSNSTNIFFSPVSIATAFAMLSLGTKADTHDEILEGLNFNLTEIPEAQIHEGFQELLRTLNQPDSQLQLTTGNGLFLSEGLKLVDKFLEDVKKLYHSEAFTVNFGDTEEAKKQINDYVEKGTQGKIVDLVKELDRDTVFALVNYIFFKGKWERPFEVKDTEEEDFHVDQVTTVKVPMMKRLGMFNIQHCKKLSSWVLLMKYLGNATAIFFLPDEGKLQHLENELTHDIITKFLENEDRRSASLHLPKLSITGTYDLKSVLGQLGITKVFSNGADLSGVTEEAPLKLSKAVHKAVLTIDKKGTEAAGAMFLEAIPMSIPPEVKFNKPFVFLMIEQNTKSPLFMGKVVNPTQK

The first assay addresses T1, NL20 human bronchial epithelial cells expressing human Z-AAT (Homo sapiens, UniProt P01009, E366K).
T1 construct: expressed in transfected cells; host or cells: NL20 human bronchial epithelial cells (NL20-SI line, doxycycline added)
As to the kind of experiment: AAT Function Assay (MSD Assay NL20-SI Cell Line). It is filed as cell-based. To be noted: NL20 Func. (EC50), functionally active AAT (AAT-hNE complex) in supernatant of NL20 cells expressing human Z-AAT. In a few lines: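 NL20 cells expressing Z-AAT, seeded 16,000 cells/well, received compound with doxycycline (0.1 μM final) and were incubated overnight at 37° C. Supernatants, diluted 45-fold in total, reacted with excess human neutrophil elastase; AAT-elastase complex captured on anti-AAT plates, detected with Sulfo-tagged anti-elastase by MSD electrochemiluminescence, and quantified against M-AAT standards (0.156-320 ng/mL).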
Consider `CC(C)c1c(CCC(=O)O)c2nc3[nH]ncc3nc2n1-c1ccc(F)cc1` [Compound 204, 3-[10-(4-fluorophenyl)-11-isopropyl-2,4,5,8,10-pentazatricyclo[7.3.0.03,7]dodeca-1,3(7),5,8,11-pentaen-12-yl]propanoic Acid], for which the EC50 (usually the concentration needed to bring the measured effect to its halfway point) was over 3 µM.
Consider `Cc1cccc(-n2c(C(C)C)c(C#N)c3cc4[nH]ncc4cc32)c1` [Compound 44, 6-isopropyl-5-(m-tolyl)-1H-pyrrolo[2,3-f]indazole-7-carbonitrile], for which the EC50 was over 3 µM.

The same assay, now with this note: functionally active AAT (AAT-hNE complex) in supernatant of NL20 cells expressing human Z-AAT; read-out: NL20 Func. (EC50).
Turning to `Cc1cc(-n2c(C(C)C)c(C(C)CC(=O)O)c3cc4[nH]ncc4cc32)ccc1F` (single isomer, unassigned) [Compound 27], the EC50 was under 1.16 µM.
The same measure, in the same setting: the figure for `Cc1cc(-n2c(C(C)C)c(C3CC(C)(C(=O)O)C3)c3cc4[nH]nc(C)c4cc32)ccc1F` (mixture of isomers) [Compound 55, 3-[5-(4-fluoro-3-methyl-phenyl)-6-isopropyl-3-methyl-1H-pyrrolo[2,3-f]indazol-7-yl]-1-methyl-cyclobutanecarboxylic Acid] is under 1.16 µM; for `CC(C)c1c(C23CC(C(=O)O)(C2)C3)c2cc3[nH]ncc3cc2n1-c1ccc(F)cc1` [Compound 210, 3-(5-(4-fluorophenyl)-6-isopropyl-1,5-dihydropyrrolo[2,3-f]indazol-7-yl)bicyclo[1.1.1]pentane-1-carboxylic Acid] it is under 1.16 µM.
Take `O=C(O)[C@H]1C[C@H](Cc2c(C3CCOCC3)n(-c3ccc(F)cc3)c3cc4cn[nH]c4cc23)C1` [Compound 118]: the EC50 is over 3 µM.
For the compound `CC(C)c1c(C2CC3(CC(C(=O)O)C3)C2)c2cc3[nH]ncc3cc2n1-c1ccc(F)cc1` (single isomer, unassigned) [Compound 36, 6-[5-(4-fluorophenyl)-6-isopropyl-1H-pyrrolo[2,3-f]indazol-7-yl]spiro[3.3]heptane-2-carboxylic acid], the EC50 is under 1.16 µM.
Regarding `Fc1ccc(-n2c(C3CCOCC3)c(CCCn3ccnc3)c3cc4[nH]ncc4cc32)cc1` [Compound 165], the EC50 lay within 1.16 to 3 µM.
For the compound `NC(=O)[C@H]1C[C@@H](c2c(C3CCOCC3)n(-c3ccc(F)cc3)c3cc4cn[nH]c4cc32)C1` [Compound 160], the EC50 is over 3 µM.
Same read-out and setting: then `Fc1ccc(-n2c(C3CCOCC3)c(CC3CCOCC3)c3cc4[nH]ncc4cc32)cc1` [Compound 145], with under 1.16 µM.
The same measure, in the same setting: then `O=C(O)C1CC2(C1)CC(c1c(C3C[C@H]4CC[C@@H](C3)O4)n(-c3ccc(F)cc3)c3cc4cn[nH]c4cc13)C2` (mixture of isomers) [Compound 122, 6-[5-(4-fluorophenyl)-6-(8-oxabicyclo[3.2.1]octan-3-yl)-1H-pyrrolo[2,3-f]indazol-7-yl]spiro[3.3]heptane-2-carboxylic Acid], with 1.16 to 3 µM; and `Cc1cc(-n2c(C3CCOCC3)c(CC3(C(=O)O)CC3)c3cc4[nH]ncc4cc32)ccc1F` [Compound 87], with 1.16 to 3 µM.
`CC(=O)NCCCc1c(C2CCOCC2)n(-c2ccc(F)cc2)c2cc3cn[nH]c3cc12` [Compound 156, N-[3-[5-(4-fluorophenyl)-6-tetrahydropyran-4-yl-1H-pyrrolo[2,3-f]indazol-7-yl]propyl]acetamide]: the EC50 is over 3 µM.
Consider `CC1(c2c(S(C)(=O)=O)c3cc4[nH]ncc4cc3n2-c2ccc(F)cc2)COC1` [Compound 197, 5-(4-fluorophenyl)-6-(3-methyloxetan-3-yl)-7-methylsulfonyl-1H-pyrrolo[2,3-f]indazole], for which the EC50 was over 3 µM.
As for `CC(C)c1c(CCC(=O)OC2O[C@H](C(=O)O)[C@@H](O)[C@H](O)[C@H]2O)c2cc3[nH]ncc3cc2n1-c1ccc(F)cc1` (stereo in doubt) [Compound 173, (2S,3S,4S,5R)-6-[3-[5-(4-fluorophenyl)-6-isopropyl-1H-pyrrolo[2,3-f]indazol-7-yl]propanoyloxy]-3,4,5-trihydroxy-tetrahydropyran-2-carboxylic Acid], the half-maximal effective concentration (EC50) is over 3 µM.
Take `Cc1n[nH]c2cc3c(C4CC5(CC(C(=O)O)C5)C4)c(C4CCOCC4)n(-c4ccc(F)c(F)c4)c3cc12` (racemic) [Compound 129, 6-[5-(3,4-difluorophenyl)-3-methyl-6-tetrahydropyran-4-yl-1H-pyrrolo[2,3-f]indazol-7-yl]spiro[3.3]heptane-2-carboxylic Acid]: the EC50 was over 3 µM.
As to `CC(C)c1c(CC2(C(=O)O)CC2)c2cc3[nH]ncc3cc2n1-c1cccc(C(F)(F)F)c1` [Compound 39, 1-[[6-isopropyl-5-[3-(trifluoromethyl)phenyl]-1H-pyrrolo[2,3-f]indazol-7-yl]methyl]cyclopropanecarboxylic Acid], the EC50 was 1.16 to 3 µM.
As to `Cc1cc(-n2c(C3CCOCC3)c(CC(C)C(=O)O)c3cc4[nH]ncc4cc32)ccc1F` (racemic) [Compound 105], the EC50 lay in the range of 1.16 to 3 µM.
Regarding `O=C(O)[C@H]1CC[C@H](Cc2c(C3CCOCC3)n(-c3ccc(F)c(Cl)c3)c3cc4cn[nH]c4cc23)CC1` [Compound 84], the EC50 lay in the range of 1.16 to 3 µM.
Same read-out and setting: the figure for `NC(=O)NCCCc1c(C2CCOCC2)n(-c2ccc(F)cc2)c2cc3cn[nH]c3cc12` [Compound 157, 3-[5-(4-fluorophenyl)-6-tetrahydropyran-4-yl-1H-pyrrolo[2,3-f]indazol-7-yl]propylurea] is over 3 µM.
Still for that read-out and setting: then `Cc1cc(-n2c(C(C)C)c(I)c3cc4[nH]ncc4cc32)ccc1F` [Compound 1, 5-(4-fluoro-3-methyl-phenyl)-7-iodo-6-isopropyl-1H-pyrrolo[2,3-f]indazole], with 1.16 to 3 µM; and `CC(C)c1c(CCC(=O)O)n(-c2ccc(F)cc2)c2cc3cn[nH]c3cc12` [Compound 194, 3-[5-(4-fluorophenyl)-7-isopropyl-1H-pyrrolo[2,3-f]indazol-6-yl]propanoic Acid], with over 3 µM; and `Fc1ccc(-n2c(C3CCOCC3)c(Cl)c3cc4[nH]ncc4cc32)cc1` [Compound 63, 7-chloro-5-(4-fluorophenyl)-6-tetrahydropyran-4-yl-1H-pyrrolo[2,3-f]indazole], with 1.16 to 3 µM.
As for `Cc1cc(-n2c(C3CCOCC3)c(CC3CC3C(=O)O)c3cc4[nH]ncc4cc32)ccc1F` (single isomer, unassigned) [Compound 101], the EC50 was over 3 µM.
Consider `Cc1cc(-n2c(C3CCOCC3)c(C3CC(CC(=O)O)C3)c3cc4[nH]ncc4cc32)ccc1F` (mixture of isomers) [Compound 93], for which the EC50 is 1.16 to 3 µM.
The same measure, in the same setting: the figure for `CCCn1c(C2CCOCC2)c(C2CC3(CC(C(=O)O)C3)C2)c2cc3[nH]ncc3cc21` (stereo not shown) [Compound 196, 6-(5-propyl-6-tetrahydropyran-4-yl-1H-pyrrolo[2,3-f]indazol-7-yl)spiro[3.3]heptane-2-carboxylic Acid] is over 3 µM; for `[2H]c1n[nH]c2c([2H])c3c(CC([2H])([2H])C(=O)O)c(C([2H])(C)C)n(-c4ccc(F)cc4)c3c([2H])c12` [Compound 189, 2,2-dideuterio-3-[3,4,8-trideuterio-6-(1-deuterio-1-methyl-ethyl)-5-(4-fluorophenyl)-1H-pyrrolo[2,3-f]indazol-7-yl]propanoic Acid] it is 1.16 to 3 µM.
On to `CC(C)c1c(CCC(=O)O)c2cc3[nH]ccc3cc2n1-c1ccc(F)cc1` [Compound 200, 3-[1-(4-fluorophenyl)-2-isopropyl-5H-pyrrolo[2,3-f]indol-3-yl]propanoic Acid], for which the EC50 is over 3 µM.
As for `[H][C@]1(C(=O)O)C[C@]2(C1)C[C@]([H])(c1c(C3CCOCC3)n(-c3ccc(F)cc3)c3cc4cn[nH]c4cc31)C2` (single isomer, unassigned) [Compound 110], the EC50 is 1.16 to 3 µM.
Regarding `CC(C)c1c(CCC(=O)N[C@@H]2C(=O)NC[C@H]2O)c2cc3[nH]ncc3cc2n1-c1ccc(F)cc1` (stereo in doubt) [Compound 211, 3-[5-(4-fluorophenyl)-6-isopropyl-1H-pyrrolo[2,3-f]indazol-7-yl]-N-[(3S,4R)-4-hydroxy-2-oxo-pyrrolidin-3-yl]propanamide], the EC50 was over 3 µM.
Regarding `Fc1ccc(-n2c(C3CCOCC3)cc3cc4[nH]ncc4cc32)cc1` [Compound 60, 5-(4-fluorophenyl)-6-tetrahydropyran-4-yl-1H-pyrrolo[2,3-f]indazole], the EC50 is over 3 µM.
In the case of `Cc1cc(-n2c(C3CCOCC3)c(C3CC4(CC(C(=O)O)C4)C3)c3cc4[nH]nc(C)c4cc32)ccc1F` (racemic) [Compound 126, 6-[5-(4-fluoro-3-methyl-phenyl)-3-methyl-6-tetrahydropyran-4-yl-1H-pyrrolo[2,3-f]indazol-7-yl]spiro[3.3]heptane-2-carboxylic acid], the EC50 lay within 1.16 to 3 µM.
For the compound `COCC(C)(C)c1c(CCC(=O)O)c2cc3[nH]ncc3cc2n1-c1ccc(F)cc1` [Compound 177], the EC50 was 1.16 to 3 µM.
Same read-out and setting: the figure for `CC(C)c1c(CCC(=O)O)c2cc3cn[nH]c3cc2n1-c1ccc(F)cc1` [Compound 201, 3-[7-(4-fluorophenyl)-6-isopropyl-1H-pyrrolo[3,2-f]indazol-5-yl]propanoic Acid] is over 3 µM; for `CC(C)c1c(C#N)c2cc3[nH]ncc3cc2n1-c1cccc(Cl)c1` [Compound 45, 5-(3-chlorophenyl)-6-isopropyl-1H-pyrrolo[2,3-f]indazole-7-carbonitrile] it is over 3 µM; for `N#Cc1c(C2CCOCC2)n(-c2ccc(F)cc2)c2cc3cn[nH]c3cc12` [Compound 61, 5-(4-fluorophenyl)-6-tetrahydropyran-4-yl-1H-pyrrolo[2,3-f]indazole-7-carbonitrile] it is over 3 µM.
Regarding `Cc1cc(-n2c(C(C)C)c(S(C)(=O)=O)c3cc4[nH]nc(F)c4cc32)ccc1F` [Compound 47, 3-fluoro-5-(4-fluoro-3-methyl-phenyl)-6-isopropyl-7-methylsulfonyl-1H-pyrrolo[2,3-f]indazole], the EC50 was over 3 µM.

The values are drawn from US11623924B2, “Modulators of alpha-1 antitrypsin” (Vertex Pharmaceuticals Incorporated, priority 2018, dated 2023).
